For one assay, the system named is MV4-11 cells. The experiment in a line: Growth inhibition, MTS assay, MV4-11. The class given is cell-based, Human. The note with it: MTS cell viability, read-out: MV4-11 ED50; for IC50: 72 hours; for pIC50: Homo sapiens, MV4-11, 72 h. (Formazan colour is commonly taken as a measure of viable cells.)
The target in the next assay is CDK2/E (Homo sapiens (Human), UniProt P24941). The experiment in a line: ADP-Glo Kinase Assay, CDK2/E. The assay is classed as biochemical. The note with it: 1 μM compound; for inhibition at 1 µM: read-out: CDK2/E % INH (1 μM). The method in brief:
(§1)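 ADP-Glo luminescent ADP detection of human kinase activity in 5 mM MOPS pH 7.5, 5 mM MgCl2, 0.4 mM EDTA, 1.5 mM DTT. ATP at each kinase's apparent Km; compounds diluted to 1000 nM in assay buffer. Percent inhibition from normalised luminescence.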

The subject of the next assay is HEL92 cells. The experiment in a line: Growth inhibition, MTS assay, HEL92. The note with it: MTS cell viability, read-out: HEL92 ED50; for IC50: 72 hours; for pIC50: Homo sapiens, 72 h. The class given is cell-based, Human.
In a further assay the test system is MOLM16 cells. The experiment in a line: Growth inhibition, MTS assay, MOLM16. The assay is classed as cell-based, Human. The note with it: MTS cell viability, read-out: MOLM 16 ED50; for pIC50: Homo sapiens, MOLM16, 72 h. From the text:
The following cell lines, were obtained and used in tests as outlined below: • Human myelomonocytic, biphenotypic leukemia MV4-11 cells (harboring a Flt3-ITD mutation); • Human Acute Myeloid Leukemia MOLM16 cells; • Human Acute Myeloid Leukemia MOLM13 cells (harboring a Flt3-ITD mutation); • Human Myeloid Leukemia KG-1 cells; • Human erythroleukemia HEL92 cells; • Human mantle cell lymphoma Jeko-1 cells; • Human hepatocellular carcinoma HepG2 cells; and • Human colon adenocarcinoma SW-480 cells.
The assays were carried out according to the following protocol, which is described as an example for the MV4-11 cells:
Ten thousand MV4-11 cells were inoculated into each well of a 96-well microplate (manufactured by Corning Corp.) using Iscove's MDM medium (culture medium) containing 10% fetal calf serum (FCS). The same day, a dimethyl sulfoxide (DMSO) solution of each test compound prepared in a concentration of 10 mmol/L was further diluted with DMSO to the desired concentrations (0.1, 0.5, 1, 2.5, 5 and 10 micromol/L), and the diluted solution was added to each well. The individual wells were further cultured in 5% carbon dioxide at 37° C. for 72 hours. […] Briefly, 10 μl MTS (3-(4,5-Dimethyl-2-thiazolyl)-5-(carboxymethoxyphenyl)-2-(4-sulfophenyl)-2H-tetrazolium was added to each well, and culturing was performed in 5% carbon dioxide at 37° C. for 2 hours. After this incubation and using a microplate spectrophotometer (Synergy 2 multi-mode microplate reader (BioTek)), the absorbance of each well was measured at 490 nm. The value for cells not incubated with a test compound was designated as 100%. By comparing these values with the absorbance difference obtained at the well in which each test compound was added, the cell viability (% viability) after treatment with the test compound was calculated.

In the next assay the target is Pim-1 (Homo sapiens (Human), UniProt P11309). The assay can be described thus: ADP-Glo Kinase Assay, Pim-1. The class given is biochemical. The note with it: 1 μM compound; for inhibition at 1 µM: read-out: Pim-1 % INH (1 μM). The method in brief:
as §1
On the technique in general: In ADP-Glo the light output rises with the ADP produced.

A further assay concerns the target FLT3wt (Homo sapiens (Human), UniProt P36888). The assay can be described thus: ADP-Glo Kinase Assay, Flt3 wt. The class given is biochemical. Particulars: 1 μM compound; for inhibition at 1 µM: read-out: Flt3wt % INH (1 μM). The procedure, abridged:
as §1

The target of the next assay is DYRK1 (Homo sapiens (Human), UniProt Q13627). The assay can be described thus: ADP-Glo Kinase Assay, DYRK1. The class given is biochemical. Particulars: 1 μM compound; for inhibition at 1 µM: read-out: DYRK1A % INH (1 μM). The procedure, abridged: as §1
Another assay deals with Pim-3 (Homo sapiens (Human), UniProt Q86V86). The assay can be described thus: ADP-Glo Kinase Assay, Pim-3. The class given is biochemical. Particulars: 1 μM compound; for inhibition at 1 µM: read-out: Pim-3 % INH (1 μM). The procedure, abridged: as §1
A further assay has as its target Pim-2 (Homo sapiens (Human), UniProt Q9P1W9). The experiment in a line: ADP-Glo Kinase Assay, Pim-2. Particulars: 1 μM compound; for inhibition at 1 µM: read-out: Pim-2 % INH (1 μM). The assay is classed as biochemical. The method in brief:
as §1

For another assay, the system named is HepG2 cells. The assay can be described thus: Growth inhibition, MTS assay, HepG2. The note with it: MTS cell viability, read-out: HepG2 ED50; for pIC50: Homo sapiens, HepG2, 72 h. The class given is cell-based, Human.
The target in the next assay is CYP3A4 (Homo sapiens (Human), UniProt P08684). The experiment in a line: Cytochrome P450 inhibition, fluorescence, CYP3A4. The class given is in vitro ADME. Particulars: recombinant CYP3A4, fluorescence detection; read-out: CYP inhibition (CYP 3A4 screening, IC50 class). How it is done: The assays for cytochrome P450 inhibition facilitate the identification of drug candidates with lower potential for drug-drug interactions (weak enzymes inhibitors). In vitro experiments were conducted to determine whether a drug inhibits a specific CYP enzyme. The experiments comprised the incubation of the drug with probe substrates for the CYP enzymes, wherein the following recombinant cytochrome P450 isoforms were employed: CYP1A2, CYP2C8, CYP2C9, CYP2C19, CYP2D6 and CYP3A4, together with various probe substrates enabling fluorescence detection. The protocol uses a single substrate concentration near the apparent Km and multiple compound concentrations.
The assay was performed in 96-well microtiter plates. The row designations were A through H and the column designations were 1 through 12. […] Each compound (see Table 6 for tested compounds) was added to the wells in column 1 and serially diluted to the wells in column 8. Wells 9 and 10 were control wells which contained no test compound (therefore no inhibition-full signal is detected.) The wells in columns 11 and 12 were blanks, where STOP solution was added prior to the addition of the enzyme/substrate mix to the NADPH regenerating system (the only signal present in these wells is background noise.) The assay was conducted in a final volume of 0.2 ml per well.
The stock solutions of the tested compounds were prepared in DMSO at 10 mM concentration. […] After mixing the compounds with solution containing NADPH-cofactors, the mixed plate was preincubated in a 37° C. incubator for at least 10 minutes; next, the fluorescence of compounds using recommended excitation/emission filters was measured in order to eliminate false results originating from autofluorescence of the compounds. In the following step, the enzyme/substrate mix was added to columns 1 through 10 and the plates were incubated at 37° C. for specific times depending on the CYP tested (incubation times ranged from 30 to 45 minutes). After adding STOP SOLUTION to all wells and respective enzyme/substrate mix to the wells in columns 11 and 12, the plate was scanned with a fluorescent plate scanner. The excitation/emission filters used for the specific assays are described in the GenTest Screening Kit instruction manual.

The subject of a further assay is SW-480 cells. The assay can be described thus: Growth inhibition, MTS assay, SW-480. The assay is classed as cell-based, Human. The note with it: Homo sapiens, SW480; 72 hours, MTS cell viability; read-out: SW-480 ED50.

pIC50: −log10 of the molar value. Where a name gives a salt, the structure may show the parent alone. Read-outs that look alike come from different tables or passages of the source.

Pim-2, sequence (Q9P1W9 whole entry): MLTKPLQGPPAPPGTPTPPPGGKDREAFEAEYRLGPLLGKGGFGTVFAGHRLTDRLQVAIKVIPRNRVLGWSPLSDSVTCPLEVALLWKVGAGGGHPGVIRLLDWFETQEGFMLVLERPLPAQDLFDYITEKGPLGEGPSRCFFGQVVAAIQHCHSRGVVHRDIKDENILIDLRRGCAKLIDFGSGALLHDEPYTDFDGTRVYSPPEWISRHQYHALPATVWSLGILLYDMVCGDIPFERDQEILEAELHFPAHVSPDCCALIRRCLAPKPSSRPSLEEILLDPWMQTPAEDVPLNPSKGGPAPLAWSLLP
CYP3A4, sequence (P08684 whole entry, canonical isoform): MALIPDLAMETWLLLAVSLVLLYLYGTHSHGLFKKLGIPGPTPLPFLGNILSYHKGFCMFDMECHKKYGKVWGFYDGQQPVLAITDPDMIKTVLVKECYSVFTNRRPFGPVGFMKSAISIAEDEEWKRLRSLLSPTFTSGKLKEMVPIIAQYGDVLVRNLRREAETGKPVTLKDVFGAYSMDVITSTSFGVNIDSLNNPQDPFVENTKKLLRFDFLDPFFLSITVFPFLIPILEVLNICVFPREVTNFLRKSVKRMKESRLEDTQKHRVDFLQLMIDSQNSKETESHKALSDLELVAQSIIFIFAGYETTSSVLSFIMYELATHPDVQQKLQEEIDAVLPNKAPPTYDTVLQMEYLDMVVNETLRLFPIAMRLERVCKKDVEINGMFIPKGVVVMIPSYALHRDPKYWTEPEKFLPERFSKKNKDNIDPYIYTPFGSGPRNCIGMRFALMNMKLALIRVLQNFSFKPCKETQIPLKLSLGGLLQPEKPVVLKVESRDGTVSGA
Pim-1, sequence (P11309 whole entry): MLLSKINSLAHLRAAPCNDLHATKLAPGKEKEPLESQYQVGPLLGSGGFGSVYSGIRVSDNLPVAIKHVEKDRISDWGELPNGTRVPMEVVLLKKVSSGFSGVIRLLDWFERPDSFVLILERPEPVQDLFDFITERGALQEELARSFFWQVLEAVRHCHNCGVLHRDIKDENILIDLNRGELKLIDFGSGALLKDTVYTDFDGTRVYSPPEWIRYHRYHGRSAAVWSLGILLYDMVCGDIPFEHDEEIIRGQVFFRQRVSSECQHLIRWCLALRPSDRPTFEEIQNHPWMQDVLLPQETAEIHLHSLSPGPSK
FLT3wt, sequence (P36888 27-993): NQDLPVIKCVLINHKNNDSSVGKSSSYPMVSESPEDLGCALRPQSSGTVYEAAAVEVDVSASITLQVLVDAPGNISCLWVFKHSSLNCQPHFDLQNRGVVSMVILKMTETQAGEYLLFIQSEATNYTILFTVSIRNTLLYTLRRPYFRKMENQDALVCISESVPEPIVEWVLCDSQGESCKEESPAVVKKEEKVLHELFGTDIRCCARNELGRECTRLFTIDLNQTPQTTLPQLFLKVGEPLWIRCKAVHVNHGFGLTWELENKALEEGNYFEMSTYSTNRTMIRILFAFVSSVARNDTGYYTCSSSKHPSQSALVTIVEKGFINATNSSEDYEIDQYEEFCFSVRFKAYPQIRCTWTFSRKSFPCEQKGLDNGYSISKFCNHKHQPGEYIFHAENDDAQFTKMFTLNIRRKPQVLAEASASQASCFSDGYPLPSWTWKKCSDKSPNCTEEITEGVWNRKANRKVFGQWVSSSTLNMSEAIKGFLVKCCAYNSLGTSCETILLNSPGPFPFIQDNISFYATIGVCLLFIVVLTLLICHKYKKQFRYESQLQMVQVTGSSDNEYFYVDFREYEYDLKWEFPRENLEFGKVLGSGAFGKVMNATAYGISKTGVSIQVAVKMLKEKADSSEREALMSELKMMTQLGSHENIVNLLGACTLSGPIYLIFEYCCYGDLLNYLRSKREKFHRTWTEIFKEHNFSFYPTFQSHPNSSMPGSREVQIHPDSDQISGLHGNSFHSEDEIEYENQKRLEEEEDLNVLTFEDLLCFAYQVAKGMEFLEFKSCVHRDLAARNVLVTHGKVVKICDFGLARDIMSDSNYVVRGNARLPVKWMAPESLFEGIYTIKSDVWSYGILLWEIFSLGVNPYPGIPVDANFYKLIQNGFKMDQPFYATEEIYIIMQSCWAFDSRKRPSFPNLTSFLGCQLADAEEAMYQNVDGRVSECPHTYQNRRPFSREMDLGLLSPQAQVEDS

For the compound `CC(C)n1c(C2CCCC(N)C2)nc2c([N+](=O)[O-])c(Br)c(Br)cc21` (single isomer, unassigned) [Example 26B, 3-[5,6-dibromo-4-nitro-1-(propan-2-yl)-1H-1,3-benzodiazol-2-yl]cyclohexan-1-amine], the values for the IC50 in the assay on MV4-11 cells and with HEL92 cells were 0.4 µM and 6.1 µM, respectively. In addition, the inhibition at 1 µM is 36% at CDK2/E, more than 95% at Pim-1 and 43% at FLT3wt. The pIC50 in the assay with MOLM16 cells was 7.00.

For `CC(C)n1c(C2CCCC(N)C2)nc2c([N+](=O)[O-])c(Br)c(Br)cc21` (single isomer, unassigned) [Example 26C, 3-[5,6-dibromo-4-nitro-1-(propan-2-yl)-1H-1,3-benzodiazol-2-yl]cyclohexan-1-amine], the IC50 in the assay on MV4-11 cells was found to be 0.1 µM; in the assay with HEL92 cells, 3.0 µM; in the assay with MOLM16 cells (72 hours), 0.2 µM. Further, the “CDK2/E % INH (1 μM)” value on CDK2/E came out at 55%. Further, the “Pim-1 % INH (1 μM)” value on Pim-1 is recorded as more than 95%. Moreover, the “Flt3wt % INH (1 μM)” value on FLT3wt stood at 55%.

Consider `CC(C)n1c(NC2CCNC2)nc2c(C#N)c(Br)c(Br)cc21` (centres unmarked) [Example 1BH], for which, in the assay with MV4-11 cells, the IC50 was determined as 4.6 µM. For the same compound, on DYRK1, the “DYRK1A % INH (1 μM)” value came to 22%. In addition, the inhibition at 1 µM at CDK2/E is less than 5%; at Pim-1, 83%. Further, the “Pim-3 % INH (1 μM)” value on Pim-3 turned out to be 60%. For the same compound, the “Pim-2 % INH (1 μM)” value on Pim-2 is 13%. Further, the pIC50 in the assay on HepG2 cells was 5.25; at CYP3A4 it was less than 5.00. Besides, the “Flt3wt % INH (1 μM)” value on FLT3wt was less than 5%.

On to `CC(C)n1c(N2CCOC(CN)C2)nc2c(C#N)c(Br)c(Br)cc21` (centres unmarked) [Example 1BM], for which the figures for the pIC50 in the assay on MV4-11 cells, with HepG2 cells and on CYP3A4 were 5.31, 5.35 and 5.48 to 5.96, respectively. In addition, the inhibition at 1 µM on CDK2/E is less than 5%; on Pim-3, 62%; at Pim-1, more than 95%; at FLT3wt, less than 5%.

As to `CCn1c(NC2CCC(N)CC2)nc2c([N+](=O)[O-])c(Br)c(Br)cc21` (centres unmarked) [Example 1DU], the IC50 is 1.0 µM with MV4-11 cells and 1.3 µM with HepG2 cells (72 hours). The “DYRK1A % INH (1 μM)” value on DYRK1 is recorded as 39%. In addition, at CDK2/E, the “CDK2/E % INH (1 μM)” value was 53%. In addition, the pIC50 in the assay on HEL92 cells was 5.26; in the assay on MOLM16 cells, 6.05. Also, the “Pim-1 % INH (1 μM)” value at Pim-1 is more than 95%. Further, the “Flt3wt % INH (1 μM)” value at FLT3wt turned out to be 12%.

`NCCCNc1nc2c([N+](=O)[O-])c(Br)c(Br)cc2[nH]1` [Example 1D]: the pIC50 in the assay with MV4-11 cells is 5.23; in the assay on SW-480 cells, 5.21; in the assay with HEL92 cells, 5.09; in the assay on HepG2 cells it was 5.21; at CYP3A4 it was less than 5.00. Besides, the inhibition at 1 µM at DYRK1 is 16%; at CDK2/E it was 21%; at Pim-3, 57%; at Pim-2, 41%; at Pim-1, more than 95%; at FLT3wt, less than 5%.

On to `NCCCNc1nc2c([N+](=O)[O-])c(Br)c(Br)cc2n1C1CCCC1` [Example 2H, N-(3-aminopropyl)-5,6-dibromo-1-cyclopentyl-4-nitro-1H-1,3-benzodiazol-2-amine hydrochloride], for which the pIC50 in the assay with MV4-11 cells was 5.70; with SW-480 cells, 5.85; in the assay with HEL92 cells, 5.17; in the assay with HepG2 cells, 5.82; on CYP3A4, 5.00 to 5.48. Further, the inhibition at 1 µM at DYRK1 was 62%; at CDK2/E, less than 5%; on Pim-3, more than 95%; on Pim-2 it was 56%; at Pim-1, more than 95%; at FLT3wt, less than 5%.

Consider `CCC(C)n1c(N2CCNCC2)nc2c([N+](=O)[O-])c(Br)c(Br)cc21` (centres unmarked) [Example 2I, 5,6-dibromo-1-(butan-2-yl)-4-nitro-2-(piperazin-1-yl)-1H-1,3-benzodiazole hydrochloride], for which the pIC50 in the assay on MV4-11 cells was 6.70; with HEL92 cells, 6.10; in the assay on HepG2 cells, 5.89; at CYP3A4 it was 5.00 to 5.48. Besides, the inhibition at 1 µM was more than 95% on DYRK1; 60% on CDK2/E; more than 95% on Pim-3; 75% at Pim-2; more than 95% at Pim-1; 89% at FLT3wt.

For the compound `CC(C)n1c(N2CCCC(O)C2)nc2c([N+](=O)[O-])c(Br)c(Br)cc21` (centres unmarked) [Example 22G, 1-[5,6-dibromo-4-nitro-1-(propan-2-yl)-1H-1,3-benzodiazol-2-yl]piperidin-3-], the pIC50 in the assay on MV4-11 cells was 5.32; on CYP3A4 it was less than 5.00. Also, the inhibition at 1 µM is 5% on CDK2/E; 87% at Pim-3; 47% at Pim-2; more than 95% at Pim-1; 13% at FLT3wt.

As to `CC(C)n1c(N2CCC[C@H](O)C2)nc2c([N+](=O)[O-])c(Br)c(Br)cc21` [Example 22I, (3S)-1-[5,6-dibromo-4-nitro-1-(propan-2-yl)-1H-1,3-benzodiazol-2-yl]piperidin-3-ol], the values for the pIC50 in the assay on MV4-11 cells and on CYP3A4 were 5.27 and less than 5.00, respectively. Also, the inhibition at 1 µM on DYRK1 is 20%; on CDK2/E, less than 5%; on Pim-3 it was 84%; at Pim-2 it was 28%; at Pim-1, more than 95%; at FLT3wt it was less than 5%.

On to `CC(C)n1c(C2CCC(N)CC2)nc2c([N+](=O)[O-])c(Br)c(Br)cc21` (centres unmarked) [Example 26D, 4-[5,6-dibromo-4-nitro-1-(propan-2-yl)-1H-1,3-benzodiazol-2-yl]cyclohexan-1-amine], for which the pIC50 in the assay with MV4-11 cells was 6.10; with HEL92 cells, 5.01; in the assay on MOLM16 cells, 6.00. For the same compound, the inhibition at 1 µM was 36% at CDK2/E, more than 95% at Pim-1 and 38% on FLT3wt.

Values taken from patent publication US10174013B2, “Benzimidazole derivatives as kinase inhibitors” (SELVITA S.A., priority 2012, dated 2019).
